From US12274703B2, “Compositions and methods of treatment for neurological disorders comprising a dementia” (Gliapharm SA, priority 2017, dated 2025)

Tests used:
primary mouse astrocytes [1] = assay: Extracellular medium acidification (SNARF5), Example 2; type: cell-based; conditions: Astrocyte, 3 nM to 30 μM, 1.5 h and 3 h
Procedure: (§1) Primary cultures of cerebrocortical astrocytes were obtained from 1 to 2-day-old OF1 mouse pups (Charles River). Briefly, cortices were isolated and minced in small pieces under a dissecting microscope. The cells were incubated for 30 min at 37° C. in a solution containing 20 U/ml papain, 1 mM L-cysteine and 10 kU/ml DNase I. After dissociation, papain activity was stopped by the addition of fetal calf serum (FCS). Single-cell suspension was then obtained by mechanical dissociation, which consisted in cells trituration in a DMEM D7777 medium supplemented with 44 mm NaHCO3, 10 ml/L antibiotic/antimycotic solution and 10% FCS. […]
Secretion of lactate was measured indirectly through the acidification of extracellular medium using extracellular pH sensor SNARE-5F-(AND-6)-CAR (SNARF5). […] After 90 min stimulation, fluorescence was read at exc. […] The ratio of fluorescence between 630 nm and 580 emission values, which is proportional to extracellular pH, was calculated. […]
The extracellular medium acidification in primary mouse astrocytes treated with GP-A1 was quantified (FIG. 13). Extracellular medium acidification was measured over a period of 1.5 h and 3 h.

primary mouse astrocytes [2] = assay: Extracellular lactate quantification, Example 2; type: cell-based; conditions: Astrocyte, 3 nM to 30 μM, 1.5 h, read-out: EC50 release of lactate
Procedure: as §1
Secretion of L-lactate was measured in the extracellular medium of 96-well plated astrocytes after 90 min stimulation (at 37° C., in 5% CO2/95% air conditions) with Vehicle (DMSO), the compounds of the invention (100 nM to 100 μM) or positive control. […] To quantify lactate concentrations in the extracellular medium, 200 μl of a 0.2M Glycine-semicarbazide buffer (pH 10) containing 3 mM NAD and 14 U/ml LDH was added to each well of a 96-well plate containing 30 μl aliquots of extracellular medium. […] Fluorescence intensity (340 nm excitation/450 nm emission), which represents the amount of NADH produced, was measured, and lactate concentration values were determined relative to a standard curve of L-lactate concentrations. […]

[3] = In vivo pharmacokinetics (PFC microdialysis and plasma); set-up: species or system mouse; conditions: after gavage with 100 mg/kg; sustained over several hours
Procedure: Mice were anesthetized using isoflurane (2% and 800 mL/min 02). Before surgery, Finadyne (1 mg/kg, s.c.) was administered for analgesia during surgery and the post-surgical recovery period. A mixture of bupivacaine and epinephrine was used for local anesthesia of the incision site of the periost of the skull.
The animals were placed in a stereotaxic frame (Kopf instruments, USA). MetaQuant microdialysis probes with a 3 mm exposed polyacrylonitrile membrane (MQ-PAN 3/3, Brainlink, the Netherlands) were implanted into the prefrontal cortex (coordinates for the tip of the probe: AP=+2.0 mm (to bregma), lateral=−0.7 mm (to midline), ventral=−3.3 mm (to dura), with the incisor bar set at 0.0 mm and an angle of 8°). All coordinates were based on “The mouse brain in stereotaxic coordinates” by Paxinos and Franklin (2004). The probes were attached to the skull with a stainless steel screw and dental cement (Fuji Plus Capsules, Henry Schein, the Netherlands).
In the same surgical procedure, a catheter was placed into the jugular vein to accommodate blood sampling. An indwelling cannula was inserted into the right jugular vein, and exteriorized through an incision on top of the skull. […]
PK was measured for GP-04, GP-05, GP-07, GP-R1 and GP-P1 in the PFC (prefrontal cortex) and plasma of wild type C56Bl/6 mice by CRO Brainsonline.

| EC50 (primary mouse astrocytes [1]) | EC50 (primary mouse astrocytes [2]) | Structure (SMILES) | Levels in the PFC [3] |
| --- | --- | --- | --- |
| 370 to 480 nM | 590 nM | Cc1ccccc1NC(=O)C1CCCN(c2ncnc3oc(C)c(C)c23)C1 (stereo not shown) [F228-0422] | – |
| – | – | CC(=O)N1CCc2sc(S(=O)(=O)N3CCN(c4ccccc4C)CC3)cc2C1 [P025-0159] | need chemical improvement to reach their target at therapeutic dose in the brain |
| – | – | COc1cc(C)c(Cl)cc1S(=O)(=O)NCc1ccncc1 [T5580243] | at therapeutic range (100 nM to 1 uM) |
